Results on one molecule are retold here after patent publication US10253341B2, “Mutant sugar isomerase with improved activity, derived from E. coli, and production of L-gulose using the same” (priority 2014, dated 2019).

The structures appear in SMILES notation.

Common to all, as to type: biochemical
Test [1] concerns the target Escherichia coli O157:H7 sugar isomerase (EcSI), wild type, SEQ ID NO: 3 (Escherichia coli, UniProt A0A6M7H989).
The target of test [2] is Escherichia coli O157:H7 sugar isomerase (EcSI, SEQ ID NO: 3) variant I112C (Escherichia coli, UniProt A0A6M7H989, I112C).
In test [3] the target is Escherichia coli O157:H7 sugar isomerase (EcSI, SEQ ID NO: 3) variant T56M (Escherichia coli, UniProt A0A6M7H989, T56M).
For test [4], the target named is Escherichia coli O157:H7 sugar isomerase (EcSI, SEQ ID NO: 3) variant M92L (Escherichia coli, UniProt A0A6M7H989, M92L).
Test [5] concerns the target Escherichia coli O157:H7 sugar isomerase (EcSI, SEQ ID NO: 3) variant I112C T56M (Escherichia coli, UniProt A0A6M7H989, I112C/T56M).
The target of test [6] is Escherichia coli O157:H7 sugar isomerase (EcSI, SEQ ID NO: 3) variant I112C T56M M92L (Escherichia coli, UniProt A0A6M7H989, I112C/M92L/T56M).

For the molecule `OCC1(O)OC[C@H](O)[C@@H](O)[C@@H]1O` (stereo partly drawn) [L-sorbose], the kcat is listed as 84 S^−1 in test [1]; 88 S^−1 in test [2]; 101 S^−1 in test [3]; 105 S^−1 in test [4]; 144 S^−1 in test [5]; 245 S^−1 in test [6]. Also, the kcat/Km in test [1] stood at 0.63 mM^−1S^−1; in test [2] it was 0.92 mM^−1S^−1; in test [3], 0.85 mM^−1S^−1; in test [4] it was 0.70 mM^−1S^−1; in test [5], 1.53 mM^−1S^−1; in test [6], 2.28 mM^−1S^−1.
